Assay results published in US8129406B2, “Nonpeptide inhibitors of matrix metalloproteinases” (Southern Research Institute, priority 2004, dated 2012).

Assays:
MMP-2 = molecular target: T1, MMP-2 (Homo sapiens, UniProt P08253); experiment: Enzyme inhibition assay, fluorometric substrate degradation, MMP-2; type: biochemical; details: purified human rMMP-2, fluorogenic substrate; read-out: Inhibition Potencies, IC50, MMP-2
T1 construct: Human rMMP-2 and -9 were purified in active forms; made in house
T1 sequence (P08253 110-660): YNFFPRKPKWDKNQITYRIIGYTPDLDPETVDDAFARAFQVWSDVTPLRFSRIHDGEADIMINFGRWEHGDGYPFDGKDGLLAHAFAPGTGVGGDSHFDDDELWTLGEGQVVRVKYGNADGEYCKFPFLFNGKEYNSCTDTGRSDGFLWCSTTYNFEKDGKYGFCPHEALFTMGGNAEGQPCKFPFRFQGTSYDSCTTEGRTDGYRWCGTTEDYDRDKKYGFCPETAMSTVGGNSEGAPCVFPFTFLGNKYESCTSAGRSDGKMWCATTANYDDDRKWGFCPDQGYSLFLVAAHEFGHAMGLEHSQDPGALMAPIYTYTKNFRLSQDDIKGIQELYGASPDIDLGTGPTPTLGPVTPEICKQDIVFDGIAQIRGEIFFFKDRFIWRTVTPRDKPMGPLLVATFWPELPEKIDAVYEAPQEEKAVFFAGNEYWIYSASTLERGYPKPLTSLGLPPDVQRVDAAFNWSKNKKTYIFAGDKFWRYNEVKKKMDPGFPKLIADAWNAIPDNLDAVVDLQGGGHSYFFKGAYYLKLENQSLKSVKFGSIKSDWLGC
Description: (§1) For kinetic studies, a standard fluorimetric assay based on hydrolysis of fluorogenic synthetic substrate (1 μM of McaPLGLDpaAR) was used. […] Both concentration and time-dependent cleavage were monitored. Controls included trypsin (non-specific cleavage) and bacterial collagenase (total cleavage) and other zinc-protease (ACE, endopeptidase). […] The IC50 values were converted to Ki values using the equation, Ki=IC50/(1+S/Km). […] Inhibition kinetics of various MMPs were also determined using substrate-degradation ELISA kits from Chemicon (Temecula, Calif.). See C.
(§2) Substrate specificity for MMP-1, -2, and -9 was assessed by degradation of labeled-collagen I and IV. […] Inhibitory potency and selectivity was also analyzed using a gelatin or collagen zymography followed by densitometric analysis. Labeled collagen I or IV degradation assay (zymography) was used for M-1, -2 and -9 activities and their inhibition. Bacterial collagenase and EDTA (10 mM) was included as positive and negative controls. In situ zymography film technique was also used for measurement of MMP-2 and MMP-9 (gelatinolytic) activities and their inhibition by drug treatment in target cells and tissue samples.

[1] = Cell proliferation and cell viability at the tested concentrations; type: cell-based; details: at the tested concentrations (data not shown)
Endopeptidase = experiment: Enzyme inhibition assay, endopeptidase (other zinc-protease control); type: biochemical; details: for IC50: read-out: Inhibition Potencies, IC50, Endopeptidase
Description: (§3) Human rMMP-2 and -9 were purified in active forms, and purified MMP-1, -3 and -13 were obtained from commercial sources (Chemicon; Temecula, Calif.) in zymogen form and were activated by 1 mM APMA or PCMB treatment (2 hrs at 37° C.). For kinetic studies, a standard fluorimetric assay based on hydrolysis of fluorogenic synthetic substrate (1 μM of McaPLGLDpaAR) was used. For each assay, target MMP (1 μM) and increasing concentrations of test compound were incubated at 25° C. for 30-60 min and the rate of substrate hydrolysis was measured by Perkin-Elmer fluorometer at an excitation 328 nm and an emission 393 nm settings. Both concentration and time-dependent cleavage were monitored. Controls included trypsin (non-specific cleavage) and bacterial collagenase (total cleavage) and other zinc-protease (ACE, endopeptidase). IC50 values (the concentration at which 50% enzyme activity is inhibited) were determined by plots of % activity versus negative log of agent concentration. The IC50 values were converted to Ki values using the equation, Ki=IC50/(1+S/Km). The Km values (μM) were calculated from the […] values of 3-5 separate experiments. Inhibition kinetics of various MMPs were also determined using substrate-degradation ELISA kits from Chemicon (Temecula, Calif.). See C. Knight, et al., FEBS Lett., 1992, 296, 263-266; L. Windsor, et al., Biochem. Biophys. Acta […], 1334, 261-272, which are incorporated by reference herein for their teachings of enzyme inhibition assays.

MMP-3 = molecular target: T2, MMP-3 (Homo sapiens, UniProt P08254); experiment: Enzyme inhibition assay, fluorometric substrate degradation, MMP-3; type: biochemical; details: Minienzyme used; read-out: Inhibition Potencies, IC50, MMP-3
T2 construct: purchased Chemicon
T2 sequence (P08254 100-477, species assumed): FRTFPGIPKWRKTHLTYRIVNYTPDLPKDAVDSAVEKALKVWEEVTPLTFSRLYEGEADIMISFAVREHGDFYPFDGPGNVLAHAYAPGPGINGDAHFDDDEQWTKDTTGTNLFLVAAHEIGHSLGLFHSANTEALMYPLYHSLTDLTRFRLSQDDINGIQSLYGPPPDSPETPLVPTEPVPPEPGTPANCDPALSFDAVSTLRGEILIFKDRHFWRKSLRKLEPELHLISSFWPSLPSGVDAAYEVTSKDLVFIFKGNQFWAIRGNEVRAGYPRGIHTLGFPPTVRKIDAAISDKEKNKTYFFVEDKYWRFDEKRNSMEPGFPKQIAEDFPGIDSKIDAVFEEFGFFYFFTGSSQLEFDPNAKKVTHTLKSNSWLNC
Description: as §3
MMP inhibitor selectivity determinations: Both quantitative labeled-substrate and FITC-biopeptide (matrix-specific) assays were used to examine the selective inhibition of MMP activities. Substrate specificity for MMP-1, -2, and -9 was assessed by degradation of labeled-collagen I and IV. Typically, MMP-dependent biomatrix degradation was monitored in the presence and absence of candidate compounds (0.5-500 μm) after 60-90 min incubations. Inhibitory potency and selectivity was also analyzed using a gelatin or collagen zymography followed by densitometric analysis. […]

[2] = system: nontumorigenic human fibroblasts cells (HF); experiment: Functional evaluation in Amgel models, nontumorigenic fibroblasts; type: cell-based
MMP-9 = molecular target: T3, MMP-9 (Homo sapiens, UniProt P14780); experiment: Enzyme inhibition assay, fluorometric substrate degradation, MMP-9; type: biochemical; details: purified human rMMP-9, fluorogenic substrate; read-out: Inhibition Potencies, IC50, MMP-9
T3 construct: Human rMMP-2 and -9 were purified in active forms; made in house
T3 sequence (P14780 107-707 limits assumed): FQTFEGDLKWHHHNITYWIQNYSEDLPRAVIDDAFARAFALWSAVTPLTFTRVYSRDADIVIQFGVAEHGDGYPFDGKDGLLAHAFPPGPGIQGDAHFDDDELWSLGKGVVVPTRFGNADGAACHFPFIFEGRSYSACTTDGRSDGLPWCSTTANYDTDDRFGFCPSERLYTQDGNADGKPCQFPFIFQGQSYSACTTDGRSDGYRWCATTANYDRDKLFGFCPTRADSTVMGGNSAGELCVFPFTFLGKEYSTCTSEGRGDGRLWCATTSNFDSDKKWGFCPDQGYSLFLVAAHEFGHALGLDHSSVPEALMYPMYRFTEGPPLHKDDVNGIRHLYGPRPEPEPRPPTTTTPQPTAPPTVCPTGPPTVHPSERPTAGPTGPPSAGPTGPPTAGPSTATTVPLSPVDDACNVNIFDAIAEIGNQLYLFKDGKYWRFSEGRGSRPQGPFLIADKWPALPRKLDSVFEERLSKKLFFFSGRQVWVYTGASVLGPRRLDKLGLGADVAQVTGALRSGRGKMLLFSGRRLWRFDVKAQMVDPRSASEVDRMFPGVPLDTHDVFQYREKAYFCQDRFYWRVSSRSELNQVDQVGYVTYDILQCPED
Description: as §1, §2

HF [3] = experiment: Amgel human tumor angiogenesis bioassay, HF; type: cell-based; details: 72 hours incubation at 50-100 μM
Description: (§4) Human tumor angiogenesis bioassay: Angiogenesis was induced by coculture of human endothelial cells (HUVECs) with tumor cells or defined angiogenic factor (FGF). Tumor cells media (from 24-hour serum-free cultures) were used to induce a biological angiogenic response using human glioma cell lines producing different concentrations of VEGF or by using purified factors such as 20 μM FGF. Endothelial cells were seeded onto Amgel-coated filters and induced with a angiogenic media+/−candidate MMP inhibitors. Varying concentrations of test compounds (0.5-500 μM) and incubation times (1-7 days) were applied, and endothelial cell differentiation (sprouting and tubule-like capillary formation) were examined by light microscopy and a computerized digital system.
(§5) Evaluation of the compounds 1c and 2c in Amgel human tumor invasion and angiogenesis models (72 hours incubation at 50-100 μM) was performed using two human HT-1080 cancer cell sublines (HT-1080-B and HT-1080-R). The results of these assays with compound 2c are shown in Table 2 and FIG. 1 (data for compound 1 c not shown).

HF [4] = experiment: Amgel human tumor cell invasion bioassay, HF; type: cell-based; details: 72 hours incubation at 50-100 μM
HT-1080B [5] = experiment: Amgel human tumor cell invasion bioassay, HT-1080B; type: cell-based; details: 72 hours incubation at 50-100 μM
Description: (§6) Human tumor cell invasion bioassay: Amgel-coated filters (8 μm) were used as tissue biomatrix barriers placed between Lucite chambers. Labeled cells (50,000) were seeded onto reconstituted-Amgel filters (75 μg) and the lower chambers were filled with media containing 5% dialyzed serum. Test compounds (0.5-100 μM) were added and incubated for 72 hours. Contents from the lower chamber were collected to resolve cell-bound and free radioactivity. See G. Siegal, et al., Cancer Lett. 1993, 69, 123-132; L. Goodly, et al., Tumor Biology 1994, 15, 326-336; M. Ikeda, et al., Clin. Cancer. Res. 2000, 6, 3290-3296; R. Singh, et al., In Vitro Cell Develop. Biol., 2002, 38, 11.
as §5

HT-1080R [6] = experiment: Amgel human tumor cell invasion bioassay, HT-1080R; type: cell-based; details: 72 hours incubation at 50-100 μM
Description: as §6, §5

HT-1080R [7] = experiment: Amgel human tumor angiogenesis bioassay, HT-1080R; type: cell-based; details: 72 hours incubation at 50-100 μM
Description: as §4, §5

HT-1080B [8] = experiment: Amgel human tumor angiogenesis bioassay, HT-1080B; type: cell-based; details: 72 hours incubation at 50-100 μM
Description: as §4, §5

IC50 (MMP-2) [nM] | IC50 (Endopeptidase) [nM] | IC50 (MMP-3) [nM] | IC50 (MMP-9) [nM] | melting point [°C] | Inhibition Potencies, IC50, Endopeptidase (Endopeptidase) | SMILES | effect on cell proliferation [1] | effect on cell viability [1] | effect on nontumorigenic human fibroblasts cells (HF) [2] | % Inhibition, Tumor angiogenesis (HF [3]) | % Inhibition, Tumor invasion (HF [4]) | % Inhibition, Tumor invasion (HT-1080B [5]) [%] | % Inhibition, Tumor invasion (HT-1080R [6]) [%] | % Inhibition, Tumor angiogenesis (HT-1080R [7]) [%] | % Inhibition, Tumor angiogenesis (HT-1080B [8]) [%]
150 | > 20000 | > 3000 | 175 | 74 to 76 | – | O=C(NO)[C@@H]1CCCC[C@@H]1NS(=O)(=O)c1ccc(-c2ccccc2)cc1 (racemic) [compound 1c, (cis)-N-Hydroxy-2-[[(4-Biphenyl)sulfonyl]amino]cyclohexanecarboxamide] | no effect | no effect | neither compound 1c nor compound 2c had any effect | – | – | – | – | – | –
– | – | – | – | 182 to 184 | – | O=C(NO)[C@@H]1CCCC[C@H]1NS(=O)(=O)c1ccc(Oc2ccccc2)cc1 (relative stereo) [compound 2d, (trans)-N-Hydroxy-2-[(4-Phenoxybenzenesulfonyl)amino]cyclohexane-carboxamide] | – | – | – | – | – | – | – | – | –
– | – | 80 | – | – | not detectable | CNC(=O)[C@H](Cc1c[nH]c2ccccc12)NC(=O)[C@@H](CC(=O)NO)CC(C)C [GM-6001, reference compound] | – | – | – | – | – | – | – | – | –
125 | > 20000 | > 3000 | 145 | 212 to 214 | – | O=C(NO)[C@@H]1CCCC[C@H]1NS(=O)(=O)c1ccc(-c2ccccc2)cc1 (racemic) [compound 2c, (trans)-N-Hydroxy-2-[[(4-Biphenyl)sulfonyl]amino]cyclohexanecarbox-amide] | no effect | no effect | neither compound 1c nor compound 2c had any effect | No effect | No effect | 50 ± 8 | 60 ± 5 | 40 ± 6 | 45 ± 4
